These results are taken from patent publication US20260242391A1 (priority 2023, published 2026).

pEC50, pIC50: −log10 of the molar value.

One data set has as its system HL-60. In words: HL-60 differentiation potency. The data set is classed as cell-based. The following applies: Homo sapiens.
The next data set can be described thus: in vitro. As to conditions: human.

Usually pEC50 stands for the negative decadic logarithm of the EC50, by convention in mol/L. Low values mean a high EC50, high ones a low EC50. As a reminder, the pIC50 is −log10 of the IC50, conventionally taken in molar units. A higher pIC50 goes with a low IC50. `C[C@H]1[C@@H](OCC2(O)CCC(C(=O)O)CC2)O[C@@H]2O[C@@]3(C)CC[C@H]4[C@H](C)CC[C@@H]1[C@@]24OO3` (stereo partly drawn) [Compound 211, 4-hydroxy-4-((((3R,5aS,6R,8aS, 9R,10S,12R, 12aR)-3,6,9-trimethyldeca-hydro-12H-3,12-epoxy[1,2]dioxepino[4,3-i]isochromen-10-yl)oxy)methyl) cyclohexane-1-carboxylic acid] had a pEC50 with HL-60 of 4.94. The same molecule showed a pIC50 in the data set “in vitro” of less than 4.70.
The matching figures for `C[C@H]1[C@@H](OC[C@H]2CCC(C(=O)O)CO2)O[C@@H]2O[C@@]3(C)CC[C@H]4[C@H](C)CC[C@@H]1[C@@]24OO3` (stereo partly drawn) [Compound 212, (6R)-6-((((3R,5aS,6R,8aS, 9R,10S,12R, 12aR)-3,6,9-trimethyldeca-hydro-12H-3,12-epoxy[1,2]dioxepino[4,3-i]isochromen-10-yl)oxy)methyl) tetrahydro-2H-pyran-3-carboxylic acid]: 4.69 and less than 4.70.
The matching figures for `C[C@H]1[C@@H](OCC(=O)Nc2ccc(C(=O)O)cc2)O[C@@H]2O[C@@]3(C)CC[C@H]4[C@H](C)CC[C@@H]1[C@@]24OO3` [Compound 213, 4-(2-(((3R,5aS,6R,8aS, 9R,10S,12R, 12aR)-3,6,9-trimethyldeca-hydro-12H-3,12-epoxy[1,2]dioxepino[4,3-i]isochromen-10-yl)oxy)actamido) benzoic acid]: 6.49 and less than 4.70.
The molecule `C[C@H]1[C@@H](Oc2ccc3cc(C(=O)O)ccc3c2)O[C@@H]2O[C@@]3(C)CC[C@H]4[C@H](C)CC[C@@H]1[C@@]24OO3` [Compound 214, 6-(((3R,5aS,6R,8aS, 9R,10S,12R, 12aR)-3,6,9-trimethyldeca-hydro-12H-3,12-epoxy[1,2]dioxepino[4,3-i]isochromen-10-yl)oxy)-2-naphthoic acid] had a pEC50 with HL-60 of 7.27. Besides, the pIC50 in the data set “in vitro” is 6.66.
`C[C@H]1[C@@H](OCc2c(F)cc(C(=O)O)cc2Cl)O[C@@H]2O[C@@]3(C)CC[C@H]4[C@H](C)CC[C@@H]1[C@@]24OO3` [Compound 215, 3-chloro-5-fluoro-4-((((3R,5aS,6R,8aS, 9R,10S,12R, 12aR)-3,6,9-trimethyldeca-hydro-12H-3,12-epoxy[1,2]dioxepino[4,3-i]isochromen-10-yl)oxy)methyl) benzoic acid] showed a negative-log EC50 (pEC50) in the data set with HL-60 of 7.18. In the data set “in vitro”, this molecule showed a pIC50 of 5.26.
In the same order, the values of `C[C@H]1[C@@H](OCc2c(Cl)cc(C(=O)O)cc2S(C)(=O)=O)O[C@@H]2O[C@@]3(C)CC[C@H]4[C@H](C)CC[C@@H]1[C@@]24OO3` [Compound 216, 3-chloro-5-(methylsulfonyl)-4-((((3R,5aS,6R,8aS, 9R,10S,12R, 12aR)-3,6,9-trimethyldeca-hydro-12H-3,12-epoxy[1,2]dioxepino[4,3-i]isochromen-10-yl)oxy)methyl) benzoic acid] are 5.14 and less than 4.70.
In the same order, the values of `C[C@H]1[C@H](OCc2c(Cl)cc(C(=O)O)cc2S(C)(=O)=O)O[C@@H]2O[C@@]3(C)CC[C@H]4[C@H](C)CC[C@@H]1[C@@]24OO3` [Compound 217, 3-chloro-5-(methylsulfonyl)-4-((((3R,5aS,6R,8aS, 9R,10R,12R, 12aR)-3,6,9-trimethyldeca-hydro-12H-3,12-epoxy[1,2]dioxepino[4,3-i]isochromen-10-yl)oxy)methyl) benzoic acid] are 7.27 and 5.52.
The matching figures for `C[C@H]1[C@@H](Oc2ccc(OCC(=O)O)cc2Cl)O[C@@H]2O[C@@]3(C)CC[C@H]4[C@H](C)CC[C@@H]1[C@@]24OO3` [Compound 218, 2-(3-chloro-4-(((3R,5aS,6R,8aS, 9R,10S,12R, 12aR)-3,6,9-trimethyldeca-hydro-12H-3,12-epoxy[1,2]dioxepino[4,3-i]isochromen-10-yl)oxy)phenoxy) acetic acid]: 6.99 and 6.16.
In the data set on HL-60, `C[C@H]1[C@@H](Oc2ccc(COCC(=O)O)cc2)O[C@@H]2O[C@@]3(C)CC[C@H]4[C@H](C)CC[C@@H]1[C@@]24OO3` [Compound 219, 2-((4-(((3R,5aS,6R,8aS, 9R,10S,12R, 12aR)-3,6,9-trimethyldeca-hydro-12H-3,12-epoxy[1,2]dioxepino[4,3-i]isochromen-10-yl)oxy)benzyl)oxy)acetic acid] gave a negative-log EC50 (pEC50) of 7.21. In the data set “in vitro”, this molecule showed a pIC50 of 4.88.
For `C[C@H]1[C@@H](Oc2cc(F)cc(OCC(=O)O)c2)O[C@@H]2O[C@@]3(C)CC[C@H]4[C@H](C)CC[C@@H]1[C@@]24OO3` [Compound 220, 2-(3-fluoro-5-(((3R,5aS,6R,8aS, 9R,10S,12R, 12aR)-3,6,9-trimethyldeca-hydro-12H-3,12-epoxy[1,2]dioxepino[4,3-i]isochromen-10-yl)oxy)phenoxy) acetic acid], the negative logarithm of the EC50 (pEC50) in the data set on HL-60 is 7.15. Also, in “in vitro”, the negative-log IC50 (pIC50) is 5.73.
In the data set on HL-60, `C[C@H]1[C@@H](Oc2ccc(OC(C)(C)C(=O)O)cc2)O[C@@H]2O[C@@]3(C)CC[C@H]4[C@H](C)CC[C@@H]1[C@@]24OO3` [Compound 221, 2-methyl-2-(4-(((3R,5aS,6R,8aS, 9R,10S,12R, 12aR)-3,6,9-trimethyldeca-hydro-12H-3,12-epoxy[1,2]dioxepino[4,3-i]isochromen-10-yl)oxy)phenoxy) propanoic acid] gave a negative-log EC50 (pEC50) of 6.91. In “in vitro”, this molecule showed a pIC50 of 5.02.
The molecule `C[C@H]1[C@@H](OCC2(F)CCCC(C(=O)O)C2)O[C@@H]2O[C@@]3(C)CC[C@H]4[C@H](C)CC[C@@H]1[C@@]24OO3` (stereo partly drawn) [Compound 222, 3-fluoro-3-((((3R,5aS,6R,8aS, 9R,10S,12R, 12aR)-3,6,9-trimethyldeca-hydro-12H-3,12-epoxy[1,2]dioxepino[4,3-i]isochromen-10-yl)oxy)methyl) cyclohexane-1-carboxylic acid] gave a negative-log EC50 (pEC50) in the data set on HL-60 of 6.87. This molecule showed a negative-log IC50 (pIC50) in the data set “in vitro” of 4.72.
Molecule `C[C@H]1[C@@H](OCc2ccc(OCC(=O)O)cc2Cl)O[C@@H]2O[C@@]3(C)CC[C@H]4[C@H](C)CC[C@@H]1[C@@]24OO3` [Compound 223, 2-(3-chloro-4-((((3R,5aS,6R,8aS, 9R,10S,12R, 12aR)-3,6,9-trimethyldeca-hydro-12H-3,12-epoxy[1,2]dioxepino[4,3-i]isochromen-10-yl)oxy)methyl)phenoxy)acetic acid] had a pEC50 with HL-60 of 6.95. Further, the pIC50 in the data set “in vitro” was 5.55.
`C[C@H]1[C@@H](O[C@H]2CC[C@@H](OCC(=O)O)CC2)O[C@@H]2O[C@@]3(C)CC[C@H]4[C@H](C)CC[C@@H]1[C@@]24OO3` [Compound 224, 2-(((1R,4s)-4-(((3R,5aS,6R,8aS, 9R,10S,12R, 12aR)-3,6,9-trimethyldeca-hydro-12H-3,12-epoxy[1,2]dioxepino[4,3-i]isochromen-10-yl)oxy)cyclohexyl)oxy)acetic acid]: the pEC50 in the data set with HL-60 is 5.09. Besides, the pIC50 in “in vitro” is less than 4.70.
The matching figures for `C[C@H]1[C@@H](OC2CCc3cc(C(=O)O)ccc32)O[C@@H]2O[C@@]3(C)CC[C@H]4[C@H](C)CC[C@@H]1[C@@]24OO3` (stereo partly drawn) [Compound 226, 1-(((3R,5aS,6R,8aS, 9R,10S,12R, 12aR)-3,6,9-trimethyldeca-hydro-12H-3,12-epoxy[1,2]dioxepino[4,3-i]isochromen-10-yl)oxy)-2,3-dihydro-1H-indene-5-carboxylic acid]: 7.29 and 4.92.
